Laboratory results reported in patent US9434724B2, “Quinuclidines for modulating alpha 7 activity” (priority 2014, dated 2016).
Like-named read-outs stand apart in the source and are kept apart here.

Assays:
[1] = Metabolic stability assay in rat liver microsomes (RLM); format: in vitro ADME; settings: 1 μM
Description: (§1) Protocol 1: Studies were carried out in human and rat liver microsomes (“HLM” and “RLM,” respectively). Human and rat liver microsomes were purchased from BD Gentest. DMSO stocks were prepared for the test compounds. Aliquots of the DMSO solutions were diluted to 0.5 mM by acetonitrile, then further diluted by liver microsomes/buffer to 1.5 μM. 30 μL of 1.5 μM solutions were mixed with 15 μL of 6 mM NADPH, which had been pre-warmed to 37° C., at a final test compound concentration of 1 μM. The plates were kept in a 37° C. water bath for the duration of the experiment. At each time point (0, 5, 15, 30, 45 minutes), 135 μL of acetonitrile was added into corresponding wells. After the final time point was sampled, the plates were shaken at a vibrator (IKA, MTS 2/4) for 10 min (600 rpm/min) and then centrifuged at 5594 g for 15 min (Thermo Multifuge×3R). Aliquots of the supernatant were removed, diluted 1:1 into distilled water, and analyzed by LC-MS/MS. The peak area response ratio to internal standard (PARR) of the compounds at 5, 15, 30, 45 minutes was compared to the PARR at time 0 to determine the percent of test compound remaining at each time point. Half-lives were calculated using Excel software, fitting to a single-phase exponential decay equation.
(§2) Protocol 2: Studies were carried out in human and rat liver microsomes. Buffer solutions were prepared as follows: Buffer A: 1.0 L of 0.1 M monobasic Potassium Phosphate buffer containing 1.0 mM EDTA; Buffer B: 1.0 L of 0.1 M Dibasic Potassium Phosphate buffer containing 1.0 mM EDTA; Buffer C: 0.1 M Potassium Phosphate buffer, 1.0 mM EDTA, pH 7.4 by titrating 700 mL of buffer B with buffer A while monitoring with a pH meter.
(§3) Reference compound (Ketanserin) and test compound spiking solutions were prepared as follows: 500 μM spiking solution: add 10 μL of 10 mM DMSO stock solution into 190 μL ACN; 1.5 μM spiking solution in microsomes (0.75 mg/mL): add 1.5 μL of 500 μM spiking solution and 18.75 μL of 20 mg/mL liver microsomes into 479.75 μL of Buffer C.
(§4) NADPH stock solution (6 mM) was prepared by dissolving NADPH into buffer C.
(§5) Assay procedure: 30 μL of 1.5 μM spiking solution containing 0.75 mg/mL microsomes solution was dispensed to the wells designated for […]. The plate was pre-incubated at 37° C. for 10 minutes. 15 μL of NADPH stock solution (6 mM) was added to the wells designated as Time 45, and the timer was started. At 30 mM, 15 mM, and 5 mM, 15 μL NADPH stock solution (6 mM) was added to the wells, respectively. At the end of incubation (0 mM), 135 μL of ACN containing IS was added to all the wells. Then 15 μL of NADPH stock solution (6 mM) was added to the wells designated as Time 0. After quenching, the reaction mixtures were centrifuged at 3220 g for […]. Following centrifugation, 50 μL of the supernatant was transferred from each well into a 96-well sample plate containing 50 μL of ultra-pure water (Millipore) for LC/MS analysis. The peak area response (PARR) ratio to internal standard of the compounds at 5, 15, 30, and 45 minutes was compared to the PARR at time 0 to determine the percent of test compound remaining at each time point. Half-lives were calculated using Excel software, fitting to a single-phase exponential decay equation.

CYP1A2 = CYP1A2 (Homo sapiens (Human), UniProt P05177); experiment: Cytochrome P450 inhibition in human liver microsomes, CYP1A2
[2] = molecular target: rat brain nicotinic receptor (α7 NAChR) (Rattus norvegicus (Rat), UniProt Q05941); format: binding
[3] = Metabolic stability assay in human liver microsomes (HLM); format: in vitro ADME; settings: 1 μM
Description: as §1, §2, §3, §4, §5

Human plasma stability = format: in vitro ADME; settings: plasma
Description: Protocol 1: Studies were carried out in human plasma. All plasma was obtained from Bioreclamation and collected on sodium heparin. Plasma was adjusted to pH 7.4. A DMSO stock was first prepared for the test compound. An aliquot of the DMSO solution was dosed into 1 mL of plasma, which had been pre-warmed to 37° C., at a final test compound concentration of 1 μM. The vials were kept in a benchtop Thermomixer® for the duration of the experiment. Aliquots (100 μL) were taken at each time point (0, 15, 30, 60, and 120 minutes) and added to 96-well plates which had been pre-filled with 300 μL of acetonitrile. Samples were stored at 4° C. until the end of the experiment. After the final time point was sampled, the plate was mixed and then centrifuged at 3,000 rpm for 10 minutes. Aliquots of the supernatant were removed, diluted 1:1 into distilled water, and analyzed by LC-MS/MS. The peak area response ratio to internal standard (PARR) of the compound at 15, 30, 60 and 120 minutes was compared to the PARR at time 0 to determine the percent of test compound remaining at each time point. Half-lives were calculated using GraphPad software, fitting to a single-phase exponential decay equation.
Protocol 2: Studies were carried out in plasma. Plasma was prepared under approval of IRB and IACUC on sodium heparin. The pH of plasma was monitored and used within the range of pH 7.4 to pH 8.0. DMSO stocks were prepared for the test compounds. Aliquots of the DMSO solutions were diluted to 0.05 mM by 0.05 mM Sodium phosphate buffer with 0.5% BSA. Then 10 μL of 0.05 mM solutions were dosed into 90 μL of plasma in duplicates (n=2), which had been pre-warmed to 37° C., at a final test compound concentration of 5 μM. The plates were kept in a 37° C. water bath for the duration of the experiment. At each time point (0, 5, 15, 30, 45, 60, and 120 minutes), 400 μL of acetonitrile was added into corresponding wells. After the final time point was sampled, the plates were shaken at the vibrator (IKA, MTS 2/4) for 10 min (600 rpm/min) and then centrifuged at 5594 g for 15 min (Thermo Multifuge×3R). Aliquots of the supernatant were removed, diluted 1:1 into distilled water, and analyzed by LC-MS/MS. The peak area response ratio to internal standard (PARR) of the compounds at 5, 15, 30, 45, 60, and 120 minutes was compared to the PARR at time 0 to determine the percent of test compound remaining at each time point. Half-lives were calculated using Excel software, fitting to a single-phase exponential decay equation.

CYP2C9 = CYP2C9 (Homo sapiens (Human), UniProt P11712); experiment: Cytochrome P450 inhibition in human liver microsomes, CYP2C9
CYP2C19 = CYP2C19 (Homo sapiens (Human), UniProt P33261); experiment: Cytochrome P450 inhibition in human liver microsomes, CYP2C19
CYP3A4 = CYP3A4 (Homo sapiens (Human), UniProt P08684); experiment: Cytochrome P450 inhibition in human liver microsomes, CYP3A4
[4] = read-out: 2C19 IC50, Protocol 2

Chain of rat brain nicotinic receptor (α7 NAChR) (Q05941 23-502 limits assumed): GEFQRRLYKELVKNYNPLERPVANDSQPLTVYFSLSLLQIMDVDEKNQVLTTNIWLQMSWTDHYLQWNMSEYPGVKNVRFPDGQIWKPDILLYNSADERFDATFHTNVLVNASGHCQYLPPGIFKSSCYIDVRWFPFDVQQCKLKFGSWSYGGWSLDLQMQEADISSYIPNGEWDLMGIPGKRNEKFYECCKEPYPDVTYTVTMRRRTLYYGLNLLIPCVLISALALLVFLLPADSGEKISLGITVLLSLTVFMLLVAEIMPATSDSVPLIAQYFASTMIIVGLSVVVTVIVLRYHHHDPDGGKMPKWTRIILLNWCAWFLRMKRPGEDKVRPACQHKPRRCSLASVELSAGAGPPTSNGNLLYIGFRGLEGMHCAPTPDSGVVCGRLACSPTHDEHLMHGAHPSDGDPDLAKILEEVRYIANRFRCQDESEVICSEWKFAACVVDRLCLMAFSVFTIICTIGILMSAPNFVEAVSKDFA
Chain of CYP2C9 (P11712 whole entry): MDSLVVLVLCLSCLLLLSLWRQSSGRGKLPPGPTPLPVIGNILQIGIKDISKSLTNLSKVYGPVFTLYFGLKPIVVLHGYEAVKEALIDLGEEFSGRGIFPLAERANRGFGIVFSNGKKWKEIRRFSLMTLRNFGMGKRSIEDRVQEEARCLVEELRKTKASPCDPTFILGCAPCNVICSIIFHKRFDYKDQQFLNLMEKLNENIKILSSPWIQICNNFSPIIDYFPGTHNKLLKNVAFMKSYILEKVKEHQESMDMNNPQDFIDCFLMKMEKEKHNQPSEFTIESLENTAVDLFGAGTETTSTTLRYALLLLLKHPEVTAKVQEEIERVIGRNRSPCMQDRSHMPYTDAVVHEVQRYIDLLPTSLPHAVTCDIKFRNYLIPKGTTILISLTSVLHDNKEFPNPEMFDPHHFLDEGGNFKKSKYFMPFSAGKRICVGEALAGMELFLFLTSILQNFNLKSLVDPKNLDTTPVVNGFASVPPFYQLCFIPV
Chain of CYP1A2 (P05177 whole entry): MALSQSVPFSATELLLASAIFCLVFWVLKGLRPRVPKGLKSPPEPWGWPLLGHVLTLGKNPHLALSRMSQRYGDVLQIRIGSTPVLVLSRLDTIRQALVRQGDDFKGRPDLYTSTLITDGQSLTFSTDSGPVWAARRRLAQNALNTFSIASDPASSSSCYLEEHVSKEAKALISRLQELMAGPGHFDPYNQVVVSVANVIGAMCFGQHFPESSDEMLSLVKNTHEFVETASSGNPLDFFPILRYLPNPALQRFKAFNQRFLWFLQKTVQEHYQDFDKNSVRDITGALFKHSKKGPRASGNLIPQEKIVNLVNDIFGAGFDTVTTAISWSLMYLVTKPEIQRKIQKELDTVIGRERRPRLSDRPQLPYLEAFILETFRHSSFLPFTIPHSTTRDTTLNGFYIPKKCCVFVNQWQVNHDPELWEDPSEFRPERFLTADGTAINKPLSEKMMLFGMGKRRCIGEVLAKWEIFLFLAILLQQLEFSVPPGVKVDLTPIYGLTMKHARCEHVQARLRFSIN
Chain of CYP2C19 (P33261 whole entry): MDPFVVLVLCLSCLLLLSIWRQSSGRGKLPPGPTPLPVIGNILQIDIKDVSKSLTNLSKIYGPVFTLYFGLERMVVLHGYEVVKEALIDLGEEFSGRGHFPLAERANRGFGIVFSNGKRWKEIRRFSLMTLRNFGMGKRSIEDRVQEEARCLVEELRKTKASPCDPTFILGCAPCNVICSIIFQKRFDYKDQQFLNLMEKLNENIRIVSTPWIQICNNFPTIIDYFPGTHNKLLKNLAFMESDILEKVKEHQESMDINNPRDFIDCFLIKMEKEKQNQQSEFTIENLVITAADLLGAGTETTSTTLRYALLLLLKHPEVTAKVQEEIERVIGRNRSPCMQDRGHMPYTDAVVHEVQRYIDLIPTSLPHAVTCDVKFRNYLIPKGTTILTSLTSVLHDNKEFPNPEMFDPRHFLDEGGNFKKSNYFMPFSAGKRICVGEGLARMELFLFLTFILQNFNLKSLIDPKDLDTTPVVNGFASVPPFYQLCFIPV
Chain of CYP3A4 (P08684 whole entry): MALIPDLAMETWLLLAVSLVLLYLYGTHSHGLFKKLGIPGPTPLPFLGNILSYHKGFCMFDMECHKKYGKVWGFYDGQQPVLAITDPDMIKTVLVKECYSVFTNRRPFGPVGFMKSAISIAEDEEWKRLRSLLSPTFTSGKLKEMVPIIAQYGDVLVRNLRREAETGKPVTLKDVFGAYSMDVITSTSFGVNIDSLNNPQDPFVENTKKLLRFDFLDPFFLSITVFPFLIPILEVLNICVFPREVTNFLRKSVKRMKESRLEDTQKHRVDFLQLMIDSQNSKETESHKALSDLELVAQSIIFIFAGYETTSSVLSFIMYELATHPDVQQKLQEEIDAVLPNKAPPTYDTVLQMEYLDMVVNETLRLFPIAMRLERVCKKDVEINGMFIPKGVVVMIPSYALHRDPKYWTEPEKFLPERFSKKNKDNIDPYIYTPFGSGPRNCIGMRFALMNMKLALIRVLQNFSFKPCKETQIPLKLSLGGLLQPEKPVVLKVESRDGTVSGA

Structure (SMILES)	RLM ([1]; rat, microsomes, pH 7.4)	IC50 (CYP1A2; read-out: 1A2 IC50, Protocol 2)	IC50 [2]	Ki [2]	HLM ([3]; human, microsomes, pH 7.4)	% Remaining @ 2 h (Human plasma stability; human, 2 h, 1 μM, pH 7.4)	half-life at 1 μM (Human plasma stability; human, pH 7.4)	IC50 (CYP2C9; read-out: 2C9 IC50, Protocol 1)	IC50 (CYP2C19; read-out: 2C19 IC50, Protocol 1)	RLM ([1]; Protocol No. 1, rat liver microsomes)	% Remaining @ 2 h (Human plasma stability; Protocol No. 2, 5 μM, 37° C.)	IC50 (CYP1A2; read-out: 1A2 IC50, Protocol 1)	IC50 (CYP3A4; read-out: 3A4 IC50 (Midazolam), substrate midazolam, Protocol 1)	IC50 (CYP3A4; read-out: 3A4 IC50 (Testosterone), substrate testosterone, Protocol 1)	HLM ([3]; Protocol No. 1, human liver microsomes)	IC50 (CYP2C9; read-out: 2C9 IC50, Protocol 2)	IC50 (CYP2C19; [4])
COc1ccc2c(C(=O)OCC34CCN(CC3)CC4)c[nH]c2c1 [Compound 17, quinuclidin-4-ylmethyl 6-methoxy-1H-indole-3-carboxylate]	38.1652 mL/min/kg	> 10000 nM	376 nM	329 nM	<13.608 mL/min/kg	–	–	–	–	–	–	–	–	–	–	–	–
Cc1ccc2[nH]cc(C(=O)OCC34CCN(CC3)CC4)c2c1 [Compound 20, quinuclidin-4-ylmethyl 5-methyl-1H-indole-3-carboxylate]	276.124 mL/min/kg	> 10000 nM	68.1 nM	60.1 nM	<13.608 mL/min/kg	14%	41.2 min	–	–	–	–	–	–	–	–	–	–
Cl.O=C(OCC12CCN(CC1)CC2)c1c[nH]c2cc(Cl)c(F)cc12 [Compound 52, Quinuclidin-4-ylmethyl 6-chloro-5-fluoro-1H-indole-3-carboxylate hydrochloride]	–	–	–	–	–	–	–	> 10000 nM	> 10000 nM	345.506 mL/min/kg	85.8425%	> 10000 nM	> 10000 nM	> 10000 nM	4.003 mL/min/kg	–	–
O=C(OCC12CCN(CC1)CC2)c1c[nH]c2ccc(O)cc12 [Compound 15, quinuclidin-4-ylmethyl 5-hydroxy-1H-indole-3-carboxylate]	25.92 mL/min/kg	> 10000 nM	153 nM	132 nM	<13.608 mL/min/kg	–	–	–	–	–	–	–	–	–	–	> 10000 nM	> 10000 nM
COc1ccc2[nH]cc(C(=O)OCC34CCN(CC3)CC4)c2c1 [Compound 18, quinuclidin-4-ylmethyl 5-methoxy-1H-indole-3-carboxylate]	47.8757 mL/min/kg	> 10000 nM	32.6 nM	28.3 nM	<13.608 mL/min/kg	5.8%	29.2 min	–	–	–	–	–	–	–	–	> 10000 nM	> 10000 nM
O=C(OCC12CCN(CC1)CC2)c1c[nH]c2ccc(F)cc12 [Compound 12, quinuclidin-4-ylmethyl 5-fluoro-1H-indole-3-carboxylate]	208.73 mL/min/kg	> 10000 nM	86.5 nM	75.1 nM	<13.608 mL/min/kg	31%	73.8 min	–	–	–	–	–	–	–	–	> 10000 nM	> 10000 nM
